Source: patent EP4644401A1, “ALLULOSE SYRUP WITH IMPROVED PROPERTY” (Samyang Corporation, priority 2022, dated 2024)
Values after ≈ are worked out from the molar mass of the structure shown.

Test: Solubility analysis of allulose dimer crystals in water
Assay type: physicochemical
Settings: water as solvent, solvent temperature 25°C

- solubility: 340 mg/mL (≈ 1890 mM)
SMILES: O=C(CO)[C@H](O)[C@H](O)[C@H](O)CO [allulose]
